Structures can show the parent of a compound that is named as a salt.
What was measured:
[1] = system: IL-2 secretion by human effector memory T cells (TEM); test: Effector memory T cells IL-2 release assay; format: cell-based; details: T-cell; human CD4+ effector memory T cells, CD3/CD28 bead stimulation, 24 h; read-out: CD4TC IL2 IC50
Procedure, shortened: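 Human CD4+ effector memory T cells from healthy-donor buffy coats were stimulated with anti-CD3/CD28 Dynabeads and exposed to 10 semi-log compound doses (0.1% DMSO) for 24 h at 37 °C. Supernatant IL-2 was measured by HTRF, and IC50 came from a 4-parameter logistic fit to maximal IL-2. Viability was checked by flow cytometry.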

[2] = target: Recombinant human MALT-1 (amino acids 340-824) (Homo sapiens (Human), UniProt Q9UDY8); test: MALT-1 inhibition assay (fluorogenic substrate Ac-LRSR-Rh110-DP); format: biochemical; details: recombinant human MALT-1, substrate Ac-LRSR-Rh110-DP
Sequence of Recombinant human MALT-1 (amino acids 340-824) (Q9UDY8 340-824): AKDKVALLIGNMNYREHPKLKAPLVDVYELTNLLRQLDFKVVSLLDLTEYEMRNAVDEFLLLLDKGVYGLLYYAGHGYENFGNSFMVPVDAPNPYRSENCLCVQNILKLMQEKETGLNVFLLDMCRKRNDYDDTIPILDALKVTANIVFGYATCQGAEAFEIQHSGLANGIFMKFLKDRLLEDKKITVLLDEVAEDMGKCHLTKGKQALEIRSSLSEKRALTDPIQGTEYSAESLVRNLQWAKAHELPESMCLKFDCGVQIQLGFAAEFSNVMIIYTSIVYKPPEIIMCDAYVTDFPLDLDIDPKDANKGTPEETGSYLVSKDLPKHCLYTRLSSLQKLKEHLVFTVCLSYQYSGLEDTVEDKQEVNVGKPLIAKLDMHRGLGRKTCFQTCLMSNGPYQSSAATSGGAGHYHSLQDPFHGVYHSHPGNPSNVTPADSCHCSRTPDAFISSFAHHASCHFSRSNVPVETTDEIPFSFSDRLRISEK
Procedure, shortened: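 Reactions were started with fluorogenic substrate Ac-LRSR-Rh110-DP (10 μM final) against 3 nM enzyme and kept dark at 25° C for 60 minutes. IC50 values came from 4-parameter logistic fits of percent inhibition calculated from relative fluorescence units.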

Row | Structure (SMILES) | IC50 [1] [nM] | IC50 [2] [nM]
1 | CNCC(=O)N1CC[C@H](C(=O)N(C)[C@@H](c2ccc(N3CCCc4c3cnc3cc(Cl)nn43)cc2)C(F)(F)F)C1 (relative stereo) [CPD0075880, (3 rel-R)—N-[(1S)-1-[4-(4-chloro-2,3,7,10-tetrazatricyclo[7.4.0.0^2,6]trideca-1(9),3,5,7-tetraen-10-yl)phenyl]-2,2,2-trifluoro-ethyl]-N-methyl-1-[2-(methylamino)acetyl]pyrrolidine-3-carboxamide hydrochloride] | 363 | 99
2 | CN(C)CC(=O)N1CC[C@H](C(=O)N(C)[C@@H](c2ccc(N3CCCc4c3cnc3cc(Cl)nn43)cc2)C(F)(F)F)C1 (relative stereo) [CPD0075876, (3rel-R)-N-[(1S)-1-[4-(4-chloro-2,3,7,10-tetrazatricyclo[7.4.0.0^2,6]trideca-1(9),3,5,7-tetraen-10-yl)phenyl]-2,2,2-trifluoro-ethyl]-1-[2-(dimethylamino)acetyl]-N-methyl-pyrrolidine-3-carboxamide] | 207 | 138
3 | CN(C(=O)[C@H]1C[C@@H]([S@+](C)(=N)[O-])C1)[C@@H](c1ccc(N2CCCc3c2cnc2cc(Cl)nn32)cc1)C(F)(F)F [CPD0073224, (1S,3s)-N-[(1S)-1-(4-{4-chloro-2,3,7,10-tetraazatricyclo[7.4.0.0^2,6]trideca-1(9),3,5,7-tetraen-10-yl}phenyl)-2,2,2-trifluoroethyl]-3-[(S)-imino(methyl)oxo-λ^6-sulfanyl]-N-methylcyclobutane-1-carboxamide] | 181 | 56
4 | CN1C[C@H](C(=O)N(C)[C@@H](c2ccc(N3CCCc4c3cnc3cc(Cl)nn43)cc2)C(F)(F)F)CC1=O (relative stereo) [CPD0073556, (3rel-R)-N-[(1S)-1-(4-{4-chloro-2,3,7,10-tetraazatricyclo[7.4.0.0^2,6]trideca-1(9),3,5,7-tetraen-10-yl}phenyl)-2,2,2-trifluoroethyl]-N,1-dimethyl-5-oxopyrrolidine-3-carboxamide] | 200 | 79

Second part, the molecule after the results:

Row | IC50 [1] [nM] | IC50 [2] [nM] | Structure (SMILES)
5 | 97 | 67 | COC[C@]1(C)CCN(c2ccc([C@H](N(C)C(=O)[C@H]3CC[S@@](=N)(=O)CC3)C(F)(F)F)cc2)c2cnc3cc(Cl)nn3c21 (relative stereo) [CPD0073131, (1rel-s,4rel-s)-N-[(1S)-1-[4-[(13rel-R)-4-chloro-13-(methoxymethyl)-13-methyl-2,3,7,10-tetrazatricyclo[7.4.0.0^2,6]trideca-1(9),3,5,7-tetraen-10-yl]phenyl]-2,2,2-trifluoro-ethyl]-1-imino-N-methyl-1-oxo-1λ^6-thiane-4-carboxamide]
6 | 51 | 22 | C[C@H]1CCN(c2ccc([C@H](N(C)C(=O)[C@H]3CC[S@](=N)(=O)CC3)C(F)(F)F)cc2)c2cnc3cc(Cl)nn3c21 (relative stereo) [CPD0073195, (1rel-R,4rel-R)-N-[(1S)-1-{4-[(13rel-S)-4-chloro-13-methyl-2,3,7,10-tetraazatricyclo[7.4.0.0^2,6]trideca-1(9),3,5,7-tetraen-10-yl]phenyl}-2,2,2-trifluoroethyl]-1-imino-N-methyl-1-oxo-1λ^6-thiane-4-carboxamide]
7 | 332 | 247 | CN(C(=O)C1CCCS(=O)(=O)C1)[C@@H](c1ccc(N2CCCc3c2cnc2cc(Cl)nn32)cc1)C(F)(F)F (stereo partly drawn) [CPD0021571, N-[(1S)-1-(4-{4-chloro-2,3,7,10-tetraazatricyclo[7.4.0.0^2,6]trideca-1(9),3,5,7-tetraen-10-yl}phenyl)-2,2,2-trifluoroethyl]-N-methyl-1,1-dioxo-1λ^6-thiane-3-carboxamide]
8 | 94 | 26 | CN(C(=O)[C@H]1CC[S@](=N)(=O)CC1)[C@@H](c1ccc(N2CCCc3c2cnc2cc(Cl)nn32)cc1)C(F)(F)F (relative stereo) [CPD0072529, (1rel-r,4rel-r)-N-[(1S)-1-(4-{4-chloro-2,3,7,10-tetraazatricyclo[7.4.0.0^2,6]trideca-1(9),3,5,7-tetraen-10-yl}phenyl)-2,2,2-trifluoroethyl]-1-imino-N-methyl-1-oxo-1λ^6-thiane-4-carboxamide]

Reference: patent US20250051327A1, “MALT-1 MODULATORS” (EXSCIENTIA AI LIMITED, priority 2020, published 2025)
